Active and inactive are the calls of the source. For most assays here, no stated cut-off is given here; in the data, actives have a measured IC50 and inactives only a lower limit.
Columns and labels:
[1] = molecular target: T1, Ubiquitin-conjugating enzyme E2 N (Homo sapiens, UniProt P61088); assay type: functional
T1 sequence (P61088 whole entry): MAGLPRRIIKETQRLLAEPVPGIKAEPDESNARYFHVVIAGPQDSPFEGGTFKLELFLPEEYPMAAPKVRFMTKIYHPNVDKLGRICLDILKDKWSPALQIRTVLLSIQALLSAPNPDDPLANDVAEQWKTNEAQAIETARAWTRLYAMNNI

[2] = molecular target: T2, DNA repair protein RAD52 homolog (Homo sapiens, UniProt P43351); assay type: functional, biochemical
T2 sequence (P43351 whole entry): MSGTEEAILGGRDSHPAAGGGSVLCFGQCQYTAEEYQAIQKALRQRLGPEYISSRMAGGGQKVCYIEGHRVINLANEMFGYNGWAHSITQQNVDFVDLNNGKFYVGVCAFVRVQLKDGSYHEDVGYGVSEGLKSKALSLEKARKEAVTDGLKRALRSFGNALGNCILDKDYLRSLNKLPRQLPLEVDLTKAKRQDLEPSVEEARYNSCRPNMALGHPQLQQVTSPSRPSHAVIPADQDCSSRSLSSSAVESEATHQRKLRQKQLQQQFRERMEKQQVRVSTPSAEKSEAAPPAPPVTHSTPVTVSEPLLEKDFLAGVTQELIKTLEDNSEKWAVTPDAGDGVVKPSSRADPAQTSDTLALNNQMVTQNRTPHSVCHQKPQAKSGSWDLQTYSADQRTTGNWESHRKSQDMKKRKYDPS

[3] = molecular target: T3, Type-1 angiotensin II receptor (Homo sapiens, UniProt P30556); assay: AT1 receptor agonists, dose response, selectivity assay for APJ receptor agonist project, cell-based, uHTS hits (AID 488865); assay type: functional;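 further: beta-arrestin recruitment to AT1 measured by enzyme fragment complementation luminescence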
T3 sequence (P30556 whole entry): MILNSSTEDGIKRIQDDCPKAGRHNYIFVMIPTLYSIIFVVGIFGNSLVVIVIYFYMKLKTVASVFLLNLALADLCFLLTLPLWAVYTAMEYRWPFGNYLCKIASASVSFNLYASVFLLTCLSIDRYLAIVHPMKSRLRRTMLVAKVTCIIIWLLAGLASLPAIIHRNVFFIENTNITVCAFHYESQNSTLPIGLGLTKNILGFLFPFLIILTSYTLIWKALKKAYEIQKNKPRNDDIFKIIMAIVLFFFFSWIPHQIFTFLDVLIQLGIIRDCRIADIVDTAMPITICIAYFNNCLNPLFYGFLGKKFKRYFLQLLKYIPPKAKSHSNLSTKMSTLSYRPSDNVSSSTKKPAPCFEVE

[4] = molecular target: T1, Ubiquitin-conjugating enzyme E2 N; assay type: functional; remark: listed apart in the source
Bcl-2-related protein A1 = molecular target: T4, Bcl-2-related protein A1 (Mus musculus, UniProt Q07440); assay type: functional;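 further: confirmatory dose–response counterscreen on Bfl-1, used to check hits from a UBC13 polyubiquitin inhibitor campaign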
T4 sequence (Q07440 whole entry): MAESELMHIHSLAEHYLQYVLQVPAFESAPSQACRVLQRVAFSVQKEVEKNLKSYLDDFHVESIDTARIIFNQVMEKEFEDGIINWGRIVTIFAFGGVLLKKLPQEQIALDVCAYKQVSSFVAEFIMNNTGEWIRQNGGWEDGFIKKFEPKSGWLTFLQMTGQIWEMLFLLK

[5] = molecular target: T5, Tyrosine-protein phosphatase non-receptor type 7 (Homo sapiens, UniProt P35236); assay type: functional
T5 sequence (P35236 whole entry): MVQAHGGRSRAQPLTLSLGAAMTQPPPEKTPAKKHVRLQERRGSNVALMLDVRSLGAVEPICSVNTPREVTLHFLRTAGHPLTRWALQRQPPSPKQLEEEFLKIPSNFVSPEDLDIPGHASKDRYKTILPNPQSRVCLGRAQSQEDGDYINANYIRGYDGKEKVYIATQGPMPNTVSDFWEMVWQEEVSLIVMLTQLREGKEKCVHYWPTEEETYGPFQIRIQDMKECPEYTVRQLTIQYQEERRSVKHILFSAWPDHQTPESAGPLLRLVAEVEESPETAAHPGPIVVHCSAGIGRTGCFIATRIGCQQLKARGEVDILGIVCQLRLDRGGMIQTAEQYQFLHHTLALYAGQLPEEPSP

[6] = molecular target: T6, Tyrosine-protein phosphatase non-receptor type 22 (Homo sapiens, UniProt Q9Y2R2); assay type: functional
T6 sequence (Q9Y2R2 whole entry): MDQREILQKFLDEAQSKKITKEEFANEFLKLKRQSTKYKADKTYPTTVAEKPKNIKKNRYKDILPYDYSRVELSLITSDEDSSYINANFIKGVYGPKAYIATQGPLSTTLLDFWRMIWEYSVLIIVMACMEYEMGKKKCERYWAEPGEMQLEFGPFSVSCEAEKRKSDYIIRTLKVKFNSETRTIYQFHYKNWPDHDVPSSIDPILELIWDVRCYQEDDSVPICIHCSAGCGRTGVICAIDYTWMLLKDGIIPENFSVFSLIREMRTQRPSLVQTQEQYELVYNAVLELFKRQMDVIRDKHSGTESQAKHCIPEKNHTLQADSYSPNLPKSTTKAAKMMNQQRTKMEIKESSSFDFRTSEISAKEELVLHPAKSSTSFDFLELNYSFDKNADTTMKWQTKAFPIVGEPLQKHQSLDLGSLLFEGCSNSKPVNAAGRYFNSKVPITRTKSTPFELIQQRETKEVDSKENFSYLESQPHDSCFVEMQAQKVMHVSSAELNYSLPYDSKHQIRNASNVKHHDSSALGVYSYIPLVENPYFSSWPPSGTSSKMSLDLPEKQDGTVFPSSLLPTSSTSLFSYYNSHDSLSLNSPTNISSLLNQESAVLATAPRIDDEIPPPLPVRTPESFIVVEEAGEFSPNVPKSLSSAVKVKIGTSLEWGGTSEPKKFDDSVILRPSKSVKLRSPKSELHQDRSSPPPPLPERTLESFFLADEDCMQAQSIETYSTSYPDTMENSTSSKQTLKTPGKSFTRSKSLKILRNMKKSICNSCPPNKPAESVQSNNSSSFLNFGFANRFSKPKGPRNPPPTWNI

[7] = molecular target: T6, Tyrosine-protein phosphatase non-receptor type 22; assay type: functional; remark: listed apart in the source
[8] = molecular target: T6, Tyrosine-protein phosphatase non-receptor type 22; assay: LYP (PTPN22) phosphatase inhibitor potency, SAR follow-up, biochemical, pCAP fluorogenic substrate, fluorescence, set 3 (AID 449727); assay type: functional
[9] = molecular target: T6, Tyrosine-protein phosphatase non-receptor type 22; assay: PubChem AID 2140
[10] = molecular target: T6, Tyrosine-protein phosphatase non-receptor type 22; assay: PubChem AID 2135
[11] = molecular target: Voltage-dependent T-type calcium channel subunit alpha-1H (Homo sapiens, UniProt O95180); assay: Cav3.2 T-type channel inhibitors, synthesized analogs, SAR follow-up, cell-based, synthetic library set 2, HEK293 HH8, Fluo-4 (AID 493023); assay type: functional
Sequence of Voltage-dependent T-type calcium channel subunit alpha-1H (O95180 whole entry): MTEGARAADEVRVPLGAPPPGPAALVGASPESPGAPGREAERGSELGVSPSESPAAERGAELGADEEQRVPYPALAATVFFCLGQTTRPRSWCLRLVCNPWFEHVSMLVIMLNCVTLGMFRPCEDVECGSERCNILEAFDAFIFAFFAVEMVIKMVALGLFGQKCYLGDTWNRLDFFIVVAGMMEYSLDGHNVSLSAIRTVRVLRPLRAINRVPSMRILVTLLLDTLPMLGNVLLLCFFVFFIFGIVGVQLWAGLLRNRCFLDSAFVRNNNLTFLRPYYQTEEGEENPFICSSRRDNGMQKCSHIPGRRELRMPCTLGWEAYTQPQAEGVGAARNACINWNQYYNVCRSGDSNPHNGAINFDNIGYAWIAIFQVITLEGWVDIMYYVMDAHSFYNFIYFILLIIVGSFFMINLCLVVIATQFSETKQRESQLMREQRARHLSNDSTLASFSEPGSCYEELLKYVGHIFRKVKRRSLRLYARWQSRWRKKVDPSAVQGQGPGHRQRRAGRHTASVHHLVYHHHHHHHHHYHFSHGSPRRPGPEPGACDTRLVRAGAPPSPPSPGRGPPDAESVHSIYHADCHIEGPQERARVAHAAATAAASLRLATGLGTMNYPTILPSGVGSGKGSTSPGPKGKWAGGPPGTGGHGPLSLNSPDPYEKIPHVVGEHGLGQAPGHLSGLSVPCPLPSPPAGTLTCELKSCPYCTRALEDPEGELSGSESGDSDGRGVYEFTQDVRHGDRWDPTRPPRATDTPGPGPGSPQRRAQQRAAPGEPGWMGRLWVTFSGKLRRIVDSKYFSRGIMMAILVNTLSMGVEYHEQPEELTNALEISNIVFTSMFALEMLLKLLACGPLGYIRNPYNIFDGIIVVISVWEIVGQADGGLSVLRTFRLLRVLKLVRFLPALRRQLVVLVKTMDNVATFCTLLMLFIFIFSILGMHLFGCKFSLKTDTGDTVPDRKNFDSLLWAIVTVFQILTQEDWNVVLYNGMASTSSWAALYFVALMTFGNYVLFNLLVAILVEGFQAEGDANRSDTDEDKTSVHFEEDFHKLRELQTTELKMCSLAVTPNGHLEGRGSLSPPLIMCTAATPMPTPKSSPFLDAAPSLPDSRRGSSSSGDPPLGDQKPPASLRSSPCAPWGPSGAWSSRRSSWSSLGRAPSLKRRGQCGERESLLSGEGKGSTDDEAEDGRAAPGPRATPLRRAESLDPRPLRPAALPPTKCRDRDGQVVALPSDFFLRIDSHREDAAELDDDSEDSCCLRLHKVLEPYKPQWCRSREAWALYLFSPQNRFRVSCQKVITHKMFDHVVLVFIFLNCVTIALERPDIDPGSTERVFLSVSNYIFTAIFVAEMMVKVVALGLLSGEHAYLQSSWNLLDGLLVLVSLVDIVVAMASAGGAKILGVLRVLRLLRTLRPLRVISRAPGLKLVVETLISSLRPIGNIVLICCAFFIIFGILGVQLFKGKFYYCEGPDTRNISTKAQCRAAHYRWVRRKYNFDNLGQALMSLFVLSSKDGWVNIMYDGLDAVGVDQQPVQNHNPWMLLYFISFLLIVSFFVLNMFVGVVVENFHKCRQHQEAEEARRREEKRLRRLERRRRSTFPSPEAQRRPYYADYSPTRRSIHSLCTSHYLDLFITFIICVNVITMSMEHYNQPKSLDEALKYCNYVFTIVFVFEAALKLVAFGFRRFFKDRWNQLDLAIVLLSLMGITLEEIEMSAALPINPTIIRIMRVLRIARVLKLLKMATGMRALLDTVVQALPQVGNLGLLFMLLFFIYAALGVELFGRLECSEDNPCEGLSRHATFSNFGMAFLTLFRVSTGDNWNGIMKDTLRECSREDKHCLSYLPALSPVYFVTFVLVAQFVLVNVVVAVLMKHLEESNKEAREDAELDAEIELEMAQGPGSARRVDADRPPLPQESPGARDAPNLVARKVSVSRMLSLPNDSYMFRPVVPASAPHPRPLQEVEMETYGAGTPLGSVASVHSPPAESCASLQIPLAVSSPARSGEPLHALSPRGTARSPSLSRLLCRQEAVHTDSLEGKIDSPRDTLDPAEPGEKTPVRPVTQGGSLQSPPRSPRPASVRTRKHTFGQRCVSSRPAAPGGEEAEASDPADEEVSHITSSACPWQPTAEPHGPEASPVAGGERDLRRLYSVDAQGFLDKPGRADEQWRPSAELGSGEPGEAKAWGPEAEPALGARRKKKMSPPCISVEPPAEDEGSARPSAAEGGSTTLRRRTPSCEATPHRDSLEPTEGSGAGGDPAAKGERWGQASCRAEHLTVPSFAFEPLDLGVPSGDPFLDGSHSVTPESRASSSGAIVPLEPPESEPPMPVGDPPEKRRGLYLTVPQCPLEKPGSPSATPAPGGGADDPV

Q: Which IC50 [1] does the source give for COc1cccc2sc(N(CCCN(C)C)C(=O)c3ccc(S(=O)(=O)N4CCc5ccccc5C4)cc3)nc12 here?
A: 13.9 µM (active)

Q: And the AC50 [2]?
A: 23.1 µM (active)

Q: And the EC50 [3]?
A: > 100 µM (inactive)

Q: What about the IC50 [4] of the same compound?
A: 10.8 µM (active)

Q: And the IC50 (Bcl-2-related protein A1)?
A: > 20 µM (inactive)

Q: How did the IC50 [5] turn out when Cc1cccnc1-n1c(C)nc2ccccc2c1=O was run?
A: > 79.4 µM (inactive)

Q: And the IC50 [6]?
A: > 79.4 µM (inactive)

Q: And the IC50 [7]?
A: > 79.4 µM (inactive)

Q: Which IC50 [8] does the source give for CCOc1ccc2nc(NC(=O)CSC3=Nc4sc(C)c(C)c4C(=O)C3)sc2c1 here?
A: > 100 µM (inactive)

Q: And the IC50 [9]?
A: 43.4 µM (active)

Q: And the IC50 [10]?
A: > 100 µM (inactive)

Q: With CC(C)(C)CCN1CCC[C@H](NC(=O)COc2ccccc2F)C1 as the compound, how does the EC50 [11] read?
A: 10 µM (active)
